In patent US9475778B2, “Sulfate of 5-hydroxy-1H-imidazole-4-carboxamide” (FUJIFILM Corporation, priority 2013, dated 2016):

Tests used:
Format in all cases: physicochemical
[1] = Storage stability test (3) under conditions of 60° C. and relative humidity of 75% (mass change, color appearance); conditions: relative humidity 75%, 2 weeks; for Mass change ratio (%): glass bottle, {(A1−A0)/A0}×100
Procedure: Storage Stability Test (3) Under Conditions of 60° C. and Relative Humidity of 75%
As test substances, the crystals obtained in Example 2 and Comparative Example 2 were chosen.
Each test substance (about 0.3 g) was put into a glass bottle, and stored under the conditions of 60° C. and relative humidity of 75% for 2 weeks, and then mass was measured. Mass change ratio of each test substance was calculated according to the following equation. Mass change ratio(%)={(A1−A0)/A0}×100 A0: Mass (g) of test substance before test A1: Mass (g) of test substance after test
Change of color appearance of the test substances was also visually evaluated.

[2] = Storage stability test (1) under conditions of 60° C. and relative humidity of 75% (coloring); conditions: glass bottle, relative humidity 75%, 2 weeks, compared with crystals of Comparative Example 1
Procedure: Storage Stability Test (1) Under Conditions of 60° C. and Relative Humidity of 75%
As test substances, the crystals obtained in Examples 1 and 2 and Comparative Example 1 were chosen.
Each test substance (about 0.3 g) was put into a glass bottle, and stored under the conditions of 60° C. and relative humidity of 75% for 2 weeks.

[3] = Storage for 2 weeks under conditions of 25° C. and relative humidity of 97%; conditions: relative humidity 97%
[4] = Storage stability test (2) under conditions of 60° C. and relative humidity of 75% (purity by HPLC); conditions: relative humidity 75%, 2 weeks
Procedure: The purities are represented in terms of HPLC area %. The HPLC measurement was performed by using Prominence (Shimadzu) under the following conditions.
Storage Stability Test (2) Under Conditions of 60° C. and Relative Humidity of 75%
As a test substance, the crystals obtained in Example 1 were chosen.
The test substance (about 0.3 g) was put into a glass bottle, and stored under the conditions of 60° C. and relative humidity of 75% for 2 weeks. After completion of the test, purity of the substance was measured by HPLC.

SMILES | Mass change ratio (%) [1] | Change of color appearance ([1]; visually evaluated) | coloring after storage [2] | appearance change after storage [3] | purity after storage (in words) ([4]; evaluated in the same manner as Test Example 2) | purity of the test substance after storage (HPLC) ([4]; glass bottle, HPLC area %) [%]
NC(=O)c1nc[nH]c1O.O=S(=O)(O)O [Example 2, sulfate of 5-hydroxy-1H-imidazole-4-carboxamide] | −0.1% | No change (white) | coloring in an obviously lower degree | did not show appearance change | high purity even after the storage for 2 weeks | 
CS(=O)(=O)O.NC(=O)c1nc[nH]c1O [Comparative Example 2, Methanesulfonate of 5-hydroxy-1H-imidazole-4-carboxamide, reference compound] | +16.2% |  |  | deliquesced |  | 
NC(=O)c1nc[nH]c1O.O=S(=O)(O)O [Example 1, sulfate of 5-hydroxy-1H-imidazole-4-carboxamide] |  |  |  |  |  | 99.97
